Measurements from PMC2937023, “Molecular Decoy to the Y-Box Binding Protein-1 Suppresses the Growth of Breast and Prostate Cancer Cells whilst Sparing Normal Cell Viability” (PLoS ONE, 2010).
Each block holds one compound with its values, some of them ahead of it. Ends that are not written are not given here.

Assays:
[1] = tested on: YB-1 binding to the EGFR promoter; details: previous work; cited from earlier work
Experimental: After 72 h, the CPP reduced HER-2 and EGFR protein levels in AU565 cells (Figure 3A). […] Further, in SUM149 cells, EGFR protein and mRNA levels were decreased (Figure 3C-D).

[2] = tested on: YB-1 binding to the EGFR promoter; experiment: Electrophoretic mobility shift assay (gel shift), SUM149 nuclear extracts; type: biochemical, human; details: SUM149 nuclear protein 5 µg pre-incubated 20 min with 25 µM peptide, EGFR2a oligonucleotides
Experimental: The gel shift assay was performed using EGFR2a oligonucleotides as previously described. Briefly, SUM149 cells were harvested and cytoplasmic/nuclear fractions were obtained using the NE-PER kit followed by EMSA using the Lightshift Chemiluminescent EMSA kit (both kits from Pierce Biotechnology, Rockford, IL). Nuclear extracts were confirmed to contain RSK and YB-1 by immunoblotting. Nuclear protein (5 µg) was pre-incubated for 20 min with unlabeled oligonucleotide plus acetic acid control, scrambled peptide (25 µM), or CPP (25 µM or 50 µM) prior to the addition of biotin-labeled oligonucleotide. Chicken anti-YB-1 (1 µg) was used as positive control. Reactions were run on a non-denaturing polyacrylamide gel, transferred to a nylon membrane, cross-linked at 120 mJ/cm^2 using a Stratalinker (Stratagene, La Jolla, CA) and visualized with chemiluminescence (Pierce Biotechnology).

SUM149 cells = experiment: Monolayer growth assay, SUM149; type: cell-based, human; details: SUM149, 72 h, 0–50 µM scrambled peptide, MTS
Experimental: (§3) For monolayer assays, cells were plated at 5000 cells per well in a 96 well plate. The following day cells were treated with diluent, 0–50 µM of scrambled peptide, or 0–50 µM CPP. The BT474, BT474-m1, HR5 and HR6 cells were also tested in combination with trastuzumab (BC Cancer Agency pharmacy, Vancouver, BC) at 20 µg/mL. […] Growth was shown as a percentage of diluent control and changes in growth were considered significant at P<0.01.

184htert cells = experiment: Monolayer growth assay, normal immortalized mammary epithelial cells; type: cell-based, human; details: 72 h, MTS proliferation assay, 0–50 µM
Experimental: For monolayer assays, cells were plated at 5000 cells per well in a 96 well plate. The following day cells were treated with diluent, 0–50 µM of scrambled peptide, or 0–50 µM CPP. […] Growth was shown as a percentage of diluent control and changes in growth were considered significant at P<0.01.

[3] = tested on: EpCAM^+ primary normal human breast epithelial cells; experiment: Normal mammary epithelial cells assay, MTS growth; type: cell-based; details: cells from reduction mammoplasties of two patients, 6 or 25 µM, 72 h
[4] = tested on: EpCAM^+ primary normal human breast epithelial cells; experiment: Normal mammary epithelial cells assay, colony-forming cell (CFC) assay; type: cell-based; details: cells from two patients, 6 or 25 µM for 48 hours, colonies counted 7 days post-seeding
Experimental: EpCAM^+ primary normal human breast epithelial cells from two patients were obtained, prepared, and isolated as previously described, [36]. In all subsequent experiments, the primary epithelial cells were grown in Epicult-B media (StemCell Technologies, Vancouver, BC) supplemented with 5% fetal calf serum. For the colony-forming cell (CFC) assay, EpCAM^+ cells from each patient were first seeded at 7000 cells/well into a 96 well plate and treated the following day with either diluent, scrambled peptide (6 or 25 µM), or CPP (6 or 25 µM) in triplicate wells for 48 hours. Following this peptide incubation, cells were harvested with trypsin, a single cell suspension was generated, and cells were seeded into the CFC assay as previously described, [37]. Colonies were counted 7 days post-seeding.

P-YB-1^S102 [5] = experiment: Immunoblotting of P-YB-1^S102 in SUM149 cells; type: cell-based, human
Experimental: (§1) Cell lines used herein were evaluated for YB-1, the activating kinases RSK and AKT, and the downstream targets EGFR and HER-2. […] Proteins were extracted using ELB plus protease and phosphatase inhibitors and western blotting was performed as previously described. The following antibodies were used to detect proteins by immunoblotting (unless otherwise indicated, all antibodies were from Cell Signaling Technology, Danvers, MA): P-YB-1^S102 (1/500), YB-1 (1/2000, Abcam, Cambridge, MA), EGFR (1/5000, Stressgen, San Diego, CA), P-p90RSK^S380 (1/500), RSK1/RSK2/RSK3 (1/1000), HER-2 (1/1000, Abcam), AKT (1/1000), creb (1/1000), pan-actin (1/1000), vinculin (1/1000). Blots were quantified using ImageJ software.

P-YB-1^S102 [6] = experiment: Immunoblotting of P-YB-1^S102 in AU565 cells; type: cell-based, human; details: 12.5–50 µM CPP, 72 h, western blot
Experimental: as §1

P-YB-1^S102 [7] = experiment: Immunoblotting of P-YB-1^S102 in LNCap cells; type: cell-based, human; details: 12.5–50 µM CPP, 72 h, western blot
Experimental: as §1

HER-2 [8] = experiment: Immunoblotting of HER-2 protein in AU565 cells; type: cell-based, human; details: 72 h, western blot
Experimental: as §1

EGFR [9] = experiment: Immunoblotting of EGFR protein in AU565 cells; type: cell-based, human; details: 72 h, western blot
Experimental: as §1

EGFR [10] = experiment: Immunoblotting of EGFR protein in SUM149 cells; type: cell-based, human; details: 72 h, western blot
Experimental: as §1

HER-2 [11] = experiment: Real-time quantitative RT-PCR of HER-2 transcript in AU565 cells; type: cell-based, human; details: 50 µM CPP, 24 h, qRT-PCR, 18S housekeeping
Experimental: (§2) RNA was isolated from log growing AU565 and SUM149 cells treated with 50 µM scrambled CPP or 50 µM CPP for 24 h using the RNeasy Mini kit from Qiagen (Mississauga, ON). The RNA was reverse transcribed and amplified using HER-2 (for AU565 cells) or EGFR (for SUM149 and AU565 cells) specific primers and probes (Applied Biosystems, Foster City, CA). 18S mRNA was quantified as a housekeeping gene (Applied Biosystems).

EGFR [12] = experiment: Real-time quantitative RT-PCR of EGFR transcript in AU565 cells; type: cell-based, human; details: 50 µM CPP, 24 h, qRT-PCR, 18S housekeeping
Experimental: as §2

EGFR [13] = experiment: Real-time quantitative RT-PCR of EGFR transcript in SUM149 cells; type: cell-based, human; details: 50 µM CPP, 24 h, qRT-PCR
Experimental: as §2

BT474 cells = experiment: Monolayer growth assay, BT474, with or without trastuzumab; type: cell-based, human; details: 72 h, MTS
Experimental: as §3

BT474-m1 cells = experiment: Monolayer growth assay, BT474-m1, with or without trastuzumab; type: cell-based, human; details: 72 h, MTS
Experimental: as §3

HR5 cells = experiment: Monolayer growth assay, HR5 (trastuzumab resistant), with or without trastuzumab; type: cell-based, human; details: 72 h, MTS
Experimental: as §3

HR6 cells = experiment: Monolayer growth assay, HR6 (trastuzumab resistant), with or without trastuzumab; type: cell-based, human; details: 72 h, MTS
Experimental: as §3

Compound: COc1cccc(-c2cc(=O)c3ccccc3o2)c1N [PD098059]
YB-1 binding to the EGFR promoter [1]: reverse YB-1 binding

Compound: CC(=O)O[C@@H]1[C@@H](OC(C)=O)[C@@H](O)[C@H](Oc2c(-c3ccc(O)cc3)oc3cc(O)cc(O)c3c2=O)O[C@H]1C [SL0101]
YB-1 binding to the EGFR promoter [1]: reverse YB-1 binding

YB-1 binding to the EGFR promoter (gel shift) [2]: bound with high affinity
Compound: RALKYGVRP [scrambled peptide]
effect on growth (SUM149 cells): no effect | growth of normal human mammary epithelial cells (184htert cells): neither the scrambled control peptide nor the CPP inhibited growth | growth of normal breast epithelial cells (MTS) [3]: neither the scrambled peptide nor the CPP had any growth effect | growth of normal breast epithelial cells (CFC output) [4]: neither the scrambled peptide nor the CPP had any growth effect

YB-1 binding to the EGFR promoter (gel shift) [2]: blocked binding
Compound: RQIKIWFQNRRMKWKKPRKYLRSVG-OH [CPP]
phosphorylation of YB-1^S102 (P-YB-1^S102 [5]; 12.5–50 µM CPP, 72 h, western blot): decreased phosphorylation | decrease of P-YB-1^S102 (P-YB-1^S102 [5]; 1 h, western blot quantified using ImageJ, relative P-YB-1:YB-1): 32% | phosphorylation of YB-1^S102 (P-YB-1^S102 [6]): decreased phosphorylation | phosphorylation of YB-1^S102 (P-YB-1^S102 [7]): decreased phosphorylation | HER-2 protein level (HER-2 [8]): reduced | EGFR protein level (EGFR [9]): reduced | EGFR protein level (EGFR [10]): decreased | reduction of HER-2 transcript level (HER-2 [11]): ~50% | reduction of EGFR transcript level (EGFR [12]): ~50% | EGFR mRNA level (EGFR [13]): decreased | sensitivity to trastuzumab (BT474 cells; BT474, CPP 12.5 or 50 µM with trastuzumab 20 µg/ml): increased the sensitivity | growth, CPP alone (BT474 cells; BT474, CPP 12.5 or 50 µM): suppressed the growth | sensitivity to trastuzumab (BT474-m1 cells; BT474-m1, CPP 12.5 or 50 µM with trastuzumab 20 µg/ml): increased the sensitivity | growth, CPP alone (BT474-m1 cells; BT474-m1, CPP 12.5 or 50 µM): suppressed the growth | sensitivity to trastuzumab (HR5 cells; HR5, CPP with trastuzumab 20 µg/ml): overcome drug insensitivity | growth, CPP (HR5 cells; HR5 trastuzumab resistant cells): significantly suppress growth | sensitivity to trastuzumab (HR6 cells; HR6, CPP with trastuzumab 20 µg/ml): overcome drug insensitivity | growth, CPP (HR6 cells; HR6 trastuzumab resistant cells): significantly suppress growth
